# Reference: patent US11529354B2, “Methods and compositions for the treatment of tuberculosis” (PRESIDENT AND FELLOWS OF HARVARD COLLEGE, priority 2017, dated 2022)
# Where two headings read alike, the source gives them in different places.
# Key:
# [1] = test system: clinical Mycobacterium tuberculosis strains (HrRr: 77#, 76#, 80#); assay: microbe, parasite or virus in culture; format: cell-based; conditions: for MIC: Mycobacterium tuberculosis
# [2] = test system: MDR-MTB isolates LZ94 and LZ99; assay: microbe, parasite or virus in culture; format: cell-based, Mycobacterium tuberculosis
# [3] = Mycobacterium tuberculosis, read-out: MIC
structure (smiles),measurement,setting,value
"Cc1ccc2[nH]c3c(c2c1)CCCC3NCc1ccccc1 (stereo not shown) [CAS 118498-98-9, N-benzyl-6-methyl-2,3,4,9-tetrahydro-1H-carbazol-1-amine]",concentration increase required to inhibit the drug resistant strains,[1],four-fold
same,MIC,[1],3.2 µg/mL
same,MIC,"[1]; strain 76#, HrRr",25.6 µg/mL
same,MIC,"[1]; strain 80#, HrRr",25.6 µg/mL
"CO[C@@H]1[C@@H](OC(=O)c2ccc(C)[nH]2)[C@@H](O)[C@H](Oc2ccc3c(O)c(NC(=O)c4ccc(O)c(CC=C(C)C)c4)c(=O)oc3c2Cl)OC1(C)C [NSC 227186, [(3R,4S,5R,6S)-6-[8-chloro-4-hydroxy-3-[[4-hydroxy-3-(3-methylbut-2-enyl)benzoyl]amino]-2-oxochromen-7-yl]oxy-5-hydroxy-3-methoxy-2,2-dimethyloxan-4-yl]5-methyl-1H-pyrrole-2-carboxylate]",MIC,[2]; [3],0.625 µg/mL
"Cn1ccc(=Nc2ccc(NC(=O)c3ccc(N=c4ccn(C)c5ccc([N+](=O)[O-])cc45)cc3)cc2)cc1 [NSC 260594, 4-[(1-methyl-6-nitroquinolin-4-ylidene)amino]-N-[4-[(1-methylpyridin-4-ylidene)amino]phenyl]benzamide]",MIC,[2],1.25 µg/mL
same,MIC,"[2]; Mycobacterium tuberculosis, Table 7 and text, […], read-out: MIC",0.625 µg/mL
same,MIC,[2]; [3],0.625 µg/mL
same,MIC,"[2]; Table 7 and text, […], listed as Formula XI",1.25 µg/mL
"CO[C@H]1/C=C/O[C@@]2(C)Oc3c(C)c(O)c4c(O)c(c(/C=N/N5CCN(C)CC5)c(O)c4c3C2=O)NC(=O)/C(C)=C\C=C\[C@H](C)[C@H](O)[C@@H](C)[C@@H](O)[C@@H](C)[C@H](OC(C)=O)[C@@H]1C [Rifampicin, reference compound]",MIC,[2]; Mycobacterium tuberculosis,2 µg/mL
